The target in data set [1] is T1, UGT1A4 (Homo sapiens, UniProt P22310).
T1 construct: purchased BD Gentest Corp. (Woburn, MA, USA); host or cells: baculovirus-infected insect cells
T1 sequence (P22310 29-534): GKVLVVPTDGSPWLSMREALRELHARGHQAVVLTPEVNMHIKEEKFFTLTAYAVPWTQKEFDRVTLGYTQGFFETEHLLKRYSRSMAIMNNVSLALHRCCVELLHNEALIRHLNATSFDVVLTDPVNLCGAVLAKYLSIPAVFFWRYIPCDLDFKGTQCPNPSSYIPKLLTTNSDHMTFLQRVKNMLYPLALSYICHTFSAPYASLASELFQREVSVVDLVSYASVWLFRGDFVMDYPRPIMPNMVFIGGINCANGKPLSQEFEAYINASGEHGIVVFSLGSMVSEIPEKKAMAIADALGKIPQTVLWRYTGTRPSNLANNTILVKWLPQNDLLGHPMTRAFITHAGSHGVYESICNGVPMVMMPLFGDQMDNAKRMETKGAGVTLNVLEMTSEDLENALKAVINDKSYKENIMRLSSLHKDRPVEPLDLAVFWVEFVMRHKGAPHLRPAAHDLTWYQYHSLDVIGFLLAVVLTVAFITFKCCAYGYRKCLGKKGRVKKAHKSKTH
In words: Recombinant UGT1A4-catalyzed trifluoperazine (TFP) glucuronidation inhibition. The class given is in vitro ADME. The following applies: for activity at 20 min, 100 μM: UGT1A4, 100 μM of compound, TFP substrate (40 μM), read-out: residual activity. The text has this:
(§1) 4-Methylumbelliferone (4-MU), 4-methylumbelliferone-β-D-glucuronide (4-MUG), Tris-HCl, 7-hydroxycoumarin, and uridine-5′-diphosphoglucuronic acid (UDPGA) (trisodium salt) were purchased from Sigma-Aldrich (St. Louis, MO). Recombinant human UGT isoforms (UGT1A1, UGT1A3, UGT1A4, UGT1A6, UGT1A7, UGT1A8, UGT1A9, UGT1A10, UGT2B4, UGT2B7, and UGT2B15) expressed in baculovirus-infected insect cells were obtained from BD Gentest Corp. (Woburn, MA, USA). Ophiopogonin D (OD), ophiopogonin D′ (OD′), methylophiopogonanone A (MA), methylophiopogonanone B (MB), and ruscorectal (RU) were purchased from Sichuan Weikeqi Biotechnology Company (Chengdu, Sichuan, China). The purity of these compounds was above 95%. All other reagents were of HPLC grade or of the highest grade commercially available.
Therefore, UGT1A4-catalyzed trifluoperazine (TFP) glucuronidation was carried out to evaluate inhibition of maidong's components towards UGT1A4 activity. As previously reported, TFP (40 μM, near its K m value) was incubated with 0.1 mg/mL recombinant UGT1A4 for 20 min in the presence or absence of maidong's ingredients.
To determine the inhibition kinetic type and parameters (K i), the reaction velocity (V) was determined at multiple concentrations of maidong's components and 4-MU (or TFP). Dixon plot and Lineweaver-Burk plot were used to fit the data. The inhibition kinetic type was evaluated through determining the intersection point in the Dixon and Lineweaver-Burk plots.
K m value is the substrate concentration in which the velocity reached half of the maximum velocity (V max) of the reaction. K i value is the inhibition constant.

Data set [2] has as its target T2, UGT1A9 (Homo sapiens, UniProt O60656).
T2 construct: purchased BD Gentest Corp. (Woburn, MA, USA); host or cells: baculovirus-infected insect cells
T2 sequence (O60656 26-530): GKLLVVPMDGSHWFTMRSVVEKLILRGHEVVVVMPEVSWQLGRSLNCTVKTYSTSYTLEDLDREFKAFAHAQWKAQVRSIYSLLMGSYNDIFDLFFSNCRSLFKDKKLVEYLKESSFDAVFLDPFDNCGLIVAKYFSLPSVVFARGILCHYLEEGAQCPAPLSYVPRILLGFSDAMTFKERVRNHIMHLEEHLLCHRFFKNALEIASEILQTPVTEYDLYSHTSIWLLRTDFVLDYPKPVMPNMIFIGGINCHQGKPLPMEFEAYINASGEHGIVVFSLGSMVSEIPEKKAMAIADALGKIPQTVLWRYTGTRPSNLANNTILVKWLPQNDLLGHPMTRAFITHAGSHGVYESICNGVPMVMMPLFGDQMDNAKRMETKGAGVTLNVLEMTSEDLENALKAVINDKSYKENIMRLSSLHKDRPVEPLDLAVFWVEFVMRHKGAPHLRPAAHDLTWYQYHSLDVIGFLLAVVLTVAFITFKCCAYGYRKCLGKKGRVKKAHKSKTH
The data set is described as follows: Recombinant UGT1A9-catalyzed 4-MU glucuronidation inhibition. The class given is in vitro ADME. The following applies: pH 7.4, probe 4-methylumbelliferone (4-MU), UGT1A9, 100 μM of compound, 4-MU substrate, read-out: residual activity.
Excerpt: as §1
4-MU, the nonspecific probe substrate for all the UGT isoforms except UGT1A4, was used in the present study to initially screen the inhibition potential of maidong's components towards UGT isoforms as previously reported. In brief, the incubation system (total volume = 200 μL) consisted of recombinant UGTs, 5 mM UDPGA, 5 mM MgCl2, 50 mM Tris-HCl (pH = 7.4), and 4-MU in the absence or presence of different concentrations of maidong's components. The compounds were dissolved in DMSO, and the final concentration of DMSO was below 0.5% (v/v). The used incubation time and protein concentration were previously determined to ensure the reaction rate within the linear range. The 4-MU concentration was equal to known K m or S 50 values for each UGT isoform. After 5 min preincubation at 37°C, the incubation reaction was initiated via adding UDPGA to the mixture system. The reactions were quenched by adding 100 μL acetonitrile with 7-hydroxycoumarin (100 μM) as internal standard. Centrifuged at 20000 ×g for 10 min, an aliquot of supernatant was transferred to an autoinjector vial for HPLC analysis. The HPLC system (Shimadzu, Kyoto, Japan) contained a SCL-10A system controller, two LC-10AT pumps, a SIL-10A autoinjector, and a SPD-10AVP UV detector. Chromatographic separation was carried out using a C18 column (4.6 × 200 mm, 5 μm, Kromasil) at a flow rate of 1 mL/min and UV detector at 316 nm. The mobile phase consisted of acetonitrile (A) and H2O containing 0.5% (v/v) formic acid (B). The following gradient condition was used: 0–15 min, 95–40% B; 15–20 min, 10% B; 20–30 min, 95% B.

[3] abbreviates: human, probe trifluoperazine (TFP).

SMILES strings stand for the structures.

As for `Cc1c(O)c(C)c2c(c1O)C(=O)[C@H](Cc1ccc3c(c1)OCO3)CO2` [MA, methylophiopogonanone A], the activity at 20 min, 100 μM in data set [1] (setting [3]) was determined as 70.4 ± 3.8%. The activity at 100 µM in data set [2] came to 38.7%.

On to `CC1CCC2(OC1)OC1CC3C4CC=C5CC(O)CC(O)C5(C)C4CCC3(C)C1C2C` (stereo not shown) [RU, ruscorectal], for which the inhibition type entry in data set [1] (UGT1A4, TFP glucuronidation, Dixon and Lineweaver-Burk plots) was “competitive inhibition”. In addition, in data set [1] (UGT1A4-catalyzed TFP glucuronidation, read-out: inhibition kinetic parameter (Ki)), the inhibition constant Ki came to 0.02 µM. For the same compound, the inhibition at 20 min, 100 µM in data set [1] (human, probe trifluoperazine (TFP), 40 μM, UGT1A4, at 100 μM, read-out: inhibition percent) was approximately 100%. For the same compound, in data set [1] (setting [3]), the activity at 20 min, 100 μM amounted to 0%. The activity at 100 µM in data set [2] worked out at 110.7 ± 1.1%.

In the case of `COc1ccc(C[C@@H]2COc3c(C)c(O)c(C)c(O)c3C2=O)cc1` [MB, methylophiopogonanone B], the activity at 20 min, 100 μM in data set [1] (setting [3]) was 81.1 ± 8%. Moreover, in data set [2], the activity at 100 µM was 68.2 ± 1.5%.

In the case of `C[C@@H]1CC[C@@]2(OC1)O[C@H]1C[C@H]3[C@@H]4CC=C5C[C@@H](O[C@@H]6O[C@H](CO)[C@@H](O)[C@H](O[C@@H]7OC[C@@H](O)[C@H](O)[C@H]7O)[C@H]6O[C@@H]6O[C@@H](C)[C@H](O)[C@@H](O)[C@H]6O)CC[C@]5(C)[C@H]4CC[C@]3(C)[C@H]1[C@@H]2C` [OD′, ophiopogonin D′], the activity at 20 min, 100 μM in data set [1] (setting [3]) worked out at 21 ± 1.6%. For the same compound, the activity at 100 µM in data set [2] amounted to 134 ± 2.1%.

Consider `C[C@@H]1CC[C@@]2(OC1)O[C@H]1C[C@H]3[C@@H]4CC=C5C[C@@H](O)C[C@@H](O[C@@H]6O[C@H](C)[C@H](O)[C@H](O[C@@H]7OC[C@@H](O)[C@H](O)[C@H]7O)[C@H]6O[C@@H]6O[C@@H](C)[C@H](O)[C@@H](O)[C@H]6O)[C@]5(C)[C@H]4CC[C@]3(C)[C@H]1[C@@H]2C` [OD, ophiopogonin D], for which the activity at 20 min, 100 μM in data set [1] (setting [3]) amounted to 24.6 ± 1.6%. Further, the activity at 100 µM in data set [2] turned out to be 135 ± 1.5%.

The values above are taken from article PMC4229968, “The Inhibition of the Components from Shengmai Injection towards UDP-Glucuronosyltransferase” (Evidence-based Complementary and Alternative Medicine : eCAM, 2014).
